Columns and labels:
[1] = tested on: Escherichia coli (E. coli—ATCC #10536); assay: Automated assessment of efficacy in model surfactant base (2.85% sodium cocoyl glycinate + 1.85% sodium lauroamphoacetate, pH 10), 15 seconds exposure, OD450/OD590 readout; assay type: cell-based; details: for No. of replicates showing growth (out of 4) / Δ OD 450 nm = OD450 (time = 16 hours) - OD450 (time zero), Mean / Δ OD 590 nm OD590 (time = 16 hours) - OD590 (time zero), Mean: model surfactant solution; for MBC: Escherichia coli, ATCC10536, 15 s, in 2.85% sodium cocoyl glycinate + 1.85% sodium lauroamphoacetate solution at pH 10, E. coli, read-out: MBC (% w/v); for Phenol MBC %(w/v): phenol alone, model surfactant, E. Coli
Experimental: Solutions were prepared such that the concentrations of the surfactant components and test actives were 1.1×x the final desired concentration in order to allow for dilution with the bacterial inoculum in the test. The solutions were manually adjusted to pH 10.0 by drop wise addition of sodium hydroxide solution, as measured with a phi meter at ambient temperature.
Tests were conducted using standard microtiter plate assays using an automated liquid handling system, 270 μl of the surfactant test solution was pipetted into each well of the microtitre plate and 30 μl of the bacterial suspension was then added. After exactly 15 seconds of bacterial exposure, a 30 μl volume of bacterial cells was withdrawn and transferred to 270 μl of D/E quench solution. After 5 minutes in the D/E quench, the optical density (OD) was measured for each plate in turn at two specific wavelengths (450 nm and 590 nm). These provide a dual check of antimicrobial activity, as the OD450 reading is specific for the yellow colour of D/E quench when bacterial growth is observed, whereas OD590 is specific for the initial purple colour of the D/E quench which is retained if no bacterial growth is observed. After the time zero OD measurements, plates were then incubated at 37° C. overnight (16 hours) before repeating the OD measurements. Delta OD values were calculated by subtracting […] the initial value at time zero. Bacterial growth is observed as an increase in OD450 and a decrease in ΔOD590. To identify antibacterially efficacious systems (those preventing appreciable bacterial growth after incubation), the following threshold changes in OD readings have been adopted: if (1), OD450 increases by less than 0.2 absorbance unit on incubation and (2). OD590 decreases by less than 0.35 unit on incubation. Conversely, where OD450 increases by more than 0.2 AU and OD590 decreases by more than 0.35 unit after incubation, corresponding to a colour shift from purple to yellow, the test system allows bacterial growth and is not deemed efficacious. Four replicate measurements in the same plate have been made for each test system. The number of replicate wells showing either bacterial growth or no growth is also readily assessed by eye by following the colour change.
Dose responses for individual components and binary mixtures of actives at a used concentration ratio were generated by sequential dilution of liquors with further surfactant solution to obtain a series of endpoints.
In some selected cases, the combinations were also tested at the weight ratio 1:1.

[2] = tested on: Escherichia coli (E. coli—ATCC #10536); assay: Synergy test: high resolution MBC microtiter plate assay, phosphate buffer containing 35% dipropylene glycol, 15 seconds contact; assay type: cell-based; details: E. coli 10536; for SI (Synergy Index = Qa/QA + Qb/QB): at Qa and Qb, <1 synergy, 1 additivity, >1 antagonism; for Qa: MBC of the first component (A) acting alone (QA): component alone (Qb = 0), complete kill in 15 seconds
Source text: One measure of synergy is -the industrially accepted method described by Kull, F. C.; Eisman, P. C.; Sylwestrowicz, H. D. and Mayer, R. L., in Applied Microbiology 9:538-541 (1961), using the ratio determined by the formula:
Qa/QA+Qb/QB=Synergy Index (“SI”)
wherein: QA=concentration of compound A (first component) in percent, acting alone, which produced an end point (MBC of Compound A). Qa =concentration of compound A in percent, in the mixture, which produced an end point. QB=concentration of compound B (second component) in percent, acting alone, which produced an end point (MBC of Compound B). Qb=concentration of compound B in percent, in the mixture, which produced an end point.
When the sum of Qa/QA and Qb/QB is greater than one, antagonism is indicated. […] The lower the SI, the greater is the synergy shown by that particular mixture. The minimum biocidal concentration (MBC) of a microbicide is the lowest concentration tested under a specific set of conditions that provides complete kill of the tested microorganisms.
Synergy tests were-conducted using standard microtiter plate assays with, phosphate buffer containing 35% dipropylene glycol (DPG). In this method, a wide range of combinations of chemicals was tested by conducting high resolution MBC assays of Component (A) in the presence of various concentrations of Component (B). High resolution MBCs were determined by adding varying amounts of microbicide to one column of a microtiter plate and doing subsequent ten-fold dilutions using an automated liquid handling system to obtain a series of closely spaced endpoints. The MBC plate was inoculated one column at a time with the test microorganism. An aliquot of the inoculated well was transferred at 15 seconds to a plate containing a neutralizing agent (D/E Neutralizing Broth), mixed and held for 5 minutes before being transferred to a growth plate containing trypticase soy broth (TSB). The TSB plate was incubated at 37° C. and read for the presence/absence of growth at 24 hours. The lowest level tested that provided complete kill (as evidenced by no growth in the microtitre plate) of the test organisms in 15 seconds is the minimum biocidal concentration (MBC).
The synergy of the combinations of the present invention was determined against a bacterium, Escherichia coli (E. coli—ATCC #10536), at a concentration of approximately 1×10^8 bacteria per mL. This microorganism is representative of natural contaminants in many consumer and industrial applications.

SMILES | No. of replicates showing growth (out of 4) ([1]; component alone at 0.05% w/v) | Δ OD 450 nm = OD450 (time = 16 hours) - OD450 (time zero), Mean ([1]; component alone at 0.05% w/v) | Δ OD 590 nm OD590 (time = 16 hours) - OD590 (time zero), Mean ([1]; component alone at 0.05% w/v) | MBC [1] [µg/mL] | No. of replicates showing growth (out of 4) ([1]; component alone at 0.2% w/v) | Δ OD 450 nm = OD450 (time = 16 hours) - OD450 (time zero), Mean ([1]; component alone at 0.2% w/v) | Δ OD 590 nm OD590 (time = 16 hours) - OD590 (time zero), Mean ([1]; component alone at 0.2% w/v) | SI (Synergy Index = Qa/QA + Qb/QB) [2] | Qa: MBC of the first component (A) acting alone (QA) [2] [weight %] | No. of replicates showing growth (out of 4) ([1]; component alone at 0.125% w/v) | Δ OD 450 nm = OD450 (time = 16 hours) - OD450 (time zero), Mean ([1]; component alone at 0.125% w/v) | Δ OD 590 nm OD590 (time = 16 hours) - OD590 (time zero), Mean ([1]; component alone at 0.125% w/v) | No. of replicates showing growth (out of 4) ([1]; component alone at […] w/v) | Δ OD 450 nm = OD450 (time = 16 hours) - OD450 (time zero), Mean ([1]; component alone at […] w/v) | Δ OD 590 nm OD590 (time = 16 hours) - OD590 (time zero), Mean ([1]; component alone at […] w/v) | also measured
CCCc1ccccc1O [2-propyphenol] | 4 out of 4 | −1.43 | 0.46 | – | – | – | – | – | – | – | – | – | – | – | – | –
CCC(C)c1ccccc1O (centres unmarked) [2-sec-butylphenol] | 4 out of 4 | −1.50 | 0.30 | 1750 | 0 out of 4 | −0.01 | 0.09 | 1.00 | 0.2 | – | – | – | – | – | – | Phenol MBC %(w/v) [1]: 0.175 %(w/v)
Cc1ccc(C(C)(C)C)c(O)c1 [2-tert-butyl-5-methylphenol] | 4 out of 4 | −1.50 | 0.29 | 2000 | – | – | – | – | – | 4 out of 4 | −1.45 | 0.32 | 4 out of 4 | −1.47 | 0.28 | No. of replicates showing growth (out of 4) ([1]; component alone at 0.175% w/v): 4 out of 4; Δ OD 450 nm = OD450 (time = 16 hours) - OD450 (time zero), Mean ([1]; component alone at 0.175% w/v): −1.30; Δ OD 590 nm OD590 (time = 16 hours) - OD590 (time zero), Mean ([1]; component alone at 0.175% w/v): 0.47
CC(C)(C)c1ccccc1O [2-tert-butylphenol] | 4 out of 4 | −1.58 | 0.22 | 2000 | – | – | – | 1.00 | – | 4 out of 4 | −1.48 | 0.30 | 4 out of 4 | −1.50 | 0.28 | No. of replicates showing growth (out of 4) ([1]; component alone at 0.175% w/v): 4 out of 4; Δ OD 450 nm = OD450 (time = 16 hours) - OD450 (time zero), Mean ([1]; component alone at 0.175% w/v): −1.08; Δ OD 590 nm OD590 (time = 16 hours) - OD590 (time zero), Mean ([1]; component alone at 0.175% w/v): 0.57; Phenol MBC %(w/v) [1]: 0.2 %(w/v)
Cc1cc(O)cc(C(C)C)c1 [3-isopropyl-5-methylphenol] | – | – | – | – | – | – | – | 1.00 | – | – | – | – | – | – | – | –
CCCc1cccc(O)c1 [3-n-propylphenol] | – | – | – | > 2000 | 4 out of 4 | −0.57 | 0.56 | 1.00 | 0.5 | 4 out of 4 | −0.59 | 0.57 | 4 out of 4 | – | – | –
CC(C)(C)c1cccc(O)c1 [3-tert-butylphenol] | – | – | – | > 2000 | 4 out of 4 | −0.47 | 0.64 | 1.00 | 0.3 | 4 out of 4 | −0.45 | 0.65 | 4 out of 4 | −0.43 | 0.65 | –
Cc1cc(O)ccc1C(C)C [4-isopropyl-3-methylphenol] | 4 out of 4 | −1.52 | 0.25 | > 2000 | 4 out of 4 | −1.41 | 0.36 | 1.00 | – | – | – | – | 4 out of 4 | −1.53 | 0.27 | No. of replicates showing growth (out of 4) ([1]; component alone at 0.1% w/v): 4 out of 4; Δ OD 450 nm = OD450 (time = 16 hours) - OD450 (time zero), Mean ([1]; component alone at 0.1% w/v): −1.50; Δ OD 590 nm OD590 (time = 16 hours) - OD590 (time zero), Mean ([1]; component alone at 0.1% w/v): 0.24
CCCCc1ccc(O)cc1 [4-n-butylphenol] | – | – | – | – | – | – | – | 1.00 | 0.2 | – | – | – | – | – | – | –
CCCc1ccc(O)cc1 [4-propylphenol] | – | – | – | > 2000 | 4 out of 4 | −1.49 | 0.43 | 1.00 | – | 4 out of 4 | −1.56 | 0.37 | 4 out of 4 | – | – | –
